This note sets out measurements from patent publication EP1278852B1, “ZSIG33-LIKE PEPTIDES” (ZymoGenetics, Inc., priority 2000, dated 2001).

No end group written: not given here.

The subject of the test is ob/ob mice. Kind of test: In vivo glucose absorption (oral glucose challenge). The conditions noted are these: given orally at 100 µg, 30 minutes prior to an oral glucose challenge; serum glucose. The protocol:
Eight female ob/ob mice, approximately 6 weeks old (Jackson Labs, Bar Harbor, ME) are adapted to a 4 hour daily feeding schedule for two weeks. After two weeks on the feeding schedule, the mice are give 100 µg of a peptide corresponding to the amino acid sequence as shown in SEQ ID NOs:4-6, 9-11, 14-17, 20-22, or 25-26 in 100 µl sterile 0.1% BSA by oral gavage, immediately after their eating period (post-prandially). Thirty minutes later, the mice are challenged orally with a 0.5 ml volume of 25% glucose. Retroorbital bleeds are done to determine serum glucose levels. Blood is drawn prior to peptide dosing, prior to oral glucose challenge, and at 1, 2, 4, and 20 hours following the glucose challenge.
Consider “zsig33-delta: peptide corresponding to residues 1 to 10 of SEQ ID NO:14; listing has 10-residue SEQ ID NO:20 (FNAPFDVGIK)”, for which the post-prandial glucose absorption entry was “enhanced post-prandial glucose absorption”.

Turning to “zsig33-epsilon: peptide corresponding to residues 1 to 13 of SEQ ID NO:17; listing has 13-residue amidated SEQ ID NO:26 (LSGVQYQQHSQAL-NH2)”, the post-prandial glucose absorption entry is “enhanced post-prandial glucose absorption”.

Regarding “zsig33-gamma: peptide corresponding to residues 1 to 17 of SEQ ID NO:10; listing has 17-residue SEQ ID NO:14 (FLQDILWEEAKEAPADK)”, the post-prandial glucose absorption result is “enhanced post-prandial glucose absorption”.
